This is an account of results in patent US5885786A, “Methods for screening of substances for inhibition of multidrug resistance” (priority 1996, dated 1999).

In test [1] the test system is MCF-7-AdrR cells. Kind of test: Cell proliferation (MTS) assay: adriamycin toxicity and chemosensitization. The note with it: for effect on adriamycin toxicity / chemosensitization (in words): 5.0 μM tested drug + adriamycin, 72 h, FIG. 15A, 16B. The source says: FIG. 15A and FIG. 15B. […] FIG. 15B: Glycosylceramide levels in MDR Cells following drug treatment. […] In order to avoid differences in [^3 H]glycosylceramide values which account for cell death, the same amount of total radioactive lipid from each sample was applied to TLC separation.
FIG. 16A and FIG. 16B. […] FIG. 16A: Effect of PPMP on cellular glycosylceramide levels. […] [^3 H]Glycosylceramide was quantitated as described in the legend to FIG. 9.
Vehicle (acetone, ethanol) was always added to control (minus drug) wells. The cytotoxic activity of a drug was determined using the Promega CellTiter 96™ AQueous MTS cell proliferation assay kit. Each experimental point was performed in six replicates. MTS/PMS solution (20 μl/well) was aliquoted into all wells, and the cells were incubated for 2-3 h, or until an O.D. of 0.9-1.0 was obtained as a highest reading. Thereafter, absorbence at 490 nm was recorded using an ELISA plate reader (Molecular Devices, San Diego, Calif.).

The subject of test [2] is acid sphingomyelinase. The note with it: literature; cited from earlier work.
The subject of test [3] is glycosphingolipid synthesis in MCF-7-AdrR cells. Kind of test: Synthesis of glycosphingolipids in MCF-7-AdrR cells labeled with [3H]galactose. The test is classed as cell-based. As to conditions: for inhibition at 5 µM: 5.0 μM tamoxifen, [3H]galactose 24 h, FIG. 10. As for the experimental part: FIG. 10. […] Glc-cer, glycosylceramide; Lac-cer, lactosylceramide; Con, control; Tam, tamoxifen.
(§1) MCF-7 cells, grown in medium containing 10% FBS, were switched to media containing 5% FBS. Cell lipids were radiolabeled by adding [^3 H]serine (2.0 μCi/ml), [^3 H]palmitic acid (1.0 μCi/ml), or [^3 H]galactose (1.0 μCi/ml) to the culture medium for the indicated times. Other radiolabels can be substituted. Cells were then rinsed twice with PBS, pH 7.4, and 2 ml of ice-cold methanol containing 2% acetic acid was added. The cells were scraped free, transferred to glass test tubes (13×100 mm), and lipids were extracted by the addition of chloroform (2 ml) followed by water (2 ml). The resulting organic lower phase was withdrawn and evaporated under a stream of nitrogen. Lipids were resuspended in 100 μL of chloroform/methanol (1:1, v/v), and aliquots were applied to TLC plates.
When using [^3 H]galactose, radiolabeled cells were transferred to glass tubes with PBS (1 ml), glucocerebroside (2.5 μg) was added to aid recovery, and lipids were extracted consecutively three times with 2 ml of chloroform/methanol (1:1, v/v).

Test [4] relates to glycosylceramide formation in MCF-7-AdrR cells. Kind of test: Inhibition of [3H]glycosylceramide formation in MCF-7-AdrR cells (TLC, liquid scintillation). The format is cell-based. The note with it: for inhibition of glycosylceramide synthesis (in words): MCF-7-AdrR cells. The method, then: FIG. 9. […] Values represent the mean of determinations from three separate experiments, and are calculated as the percent glycosylceramide in the total lipid tritium extract.
FIG. 11A and FIG. 11B. […] FIG. 11: A Autoradiography. […] For autoradiography equal aliquots by volume of total lipid extract were applied to TLC plates. […] [^3 H]Glycosylceramide, visualized in panel A, was quantitated as described in the legend to FIG. 9. Each value represents mean±SEM of determinations from three separate experiments.
FIG. 12. […] [^3 H]Glycosylceramide was quantitated as described in the legend to FIG. 9. Results represents the mean±SEM of determinations from three separate experiments.
as §1
Lipid analysis was carried out by TLC using solvent system I: chloroform/methanol/ammonium hydroxide (40:10:1, v/v) for glycosylceramide separation, solvent system II: chloroform/methanol/water (60:40:8, v/v) for sphingoglycolipid separation, or solvent system III: chloroform/methanol/acetic acid/water (50:30:7:3, v/v) for sphingomyelin separation. For determination of ceramides, an aliquot of the chloroform-soluble lipids was base-hydrolyzed in 0.1N KOH in methanol for 1 h at 37° C., lipids were re-extracted, and separated by TLC using solvent system IV: hexane/diethyl ether/formic acid (60:40:1, v/v).
Radiochromatograms were sprayed with EN^3 HANCE, and exposed for 3-7 days for autofluorgraphy. TLC areas, aligned with bands on the autoradiographs or with iodine-stained commercial lipid standards, were scraped from the plate. Water (0.5 ml) was added to the plate scrapings followed by 4.5 ml of EcoLume counting fluid, and the samples were quantitated by liquid scintillation spectrometry.

Test [5] relates to glycosylation of ceramide in MCF-7-AdrR cells (UDP-glucose:ceramide glucosyltransferase). Kind of test: Glycosylation of C6-ceramide and natural glycosphingolipid synthesis, [3H]galactose labeling. The format is cell-based. The note with it: for inhibition at 5 µM: 5.0 μM tamoxifen, FIG. 14B. The method, then: FIG. 14A and FIG. 14B. Effect of Tamoxifen on Ceramide Synthesis and Glycosylation in MCF-7-AdrR Cells. FIG. 14: A Influence of tamoxifen on ceramide synthesis. The experiment was conducted as described in the legend to FIG. 13. Aliquots of the total lipid extract were based-hydrolyzed as described in Example I, separated by TLC using solvent system IV, and the resolved [^3 H]ceramide was quantitated by liquid scintillation spectrometry. Results are the mean±SEM of duplicate determinations from two separate experiments. FIG. 14B: Effect of tamoxifen on glycosylation of C6 -ceramide. Cells, in 100×20 mm culture dishes, were preincubated without or with 5.0 μM tamoxifen for 30 min, followed by incubation without or with 5.0 μM C6 -ceramide:BSA (prepared at a 1:1 molar ratio) for an additional 30 min. Cells were labeled thereafter with 1.0 μCi/ml [^3 H]galactose for 24 h. [3H]Galactose uptake was determined and found to be similar in all experimental points (1.0×10^6 cpm/dish). The total extracted lipid was applied to TLC separation and [^3 H]glycosphingolipids were analyzed as described in the legend to FIG. 10. The autoradiography of a representative chromatogram is shown.
In order to explore this notion, a short-chain ceramide analog with a 6-carbon N-acyl group (C6 -ceramide), was utilized as a substrate.

For test [6], the system named is P-glycoprotein. As to conditions: literature; cited from earlier work.

Entries after “also recorded” stand apart in the source; their conditions may differ. Where two headings read alike, the source gives them in different places.

The IC50 is the concentration that gives 50% inhibition. As to `CC/C(=C(\c1ccccc1)c1ccc(OCCN(C)C)cc1)c1ccccc1` [tamoxifen], the “effect on adriamycin toxicity / chemosensitization (in words)” value is recorded as “shifted to lower concentrations; also recorded: very potent in cell killing” in test [1] and “potently sensitized” in test [1] (listed as Tamoxifen). In addition, the “effect of the substance alone on cell survival (in words)” value in test [1] (MCF-7-AdrR, alone) is “not toxic”. In test [2], the “inhibition of acid sphingomyelinase (in words)” value is recorded as “inhibition of acid sphingomyelinase activity”. For the same molecule, the inhibition at 5 µM in test [3] (read-out: reduction of ganglioside level) came to 33%; in test [3] (read-out: reduction of glycosylceramide level) it was 69%; in test [3] (read-out: reduction of lactosylceramide level), 74%; in test [4] (5.0 μM drug, 24 h, MCF-7-AdrR, FIG. 11B, read-out: inhibition of glycosylceramide formation (cpm tritium)) it was 65%; in test [5] (5.0 μM C6-ceramide, read-out: inhibition of conversion of C6-ceramide to C6-glycosylceramide), 54%; in test [5] (in presence of C6-ceramide, read-out: inhibition of formation of natural glycosylceramide), 43%. Also, the “synthesis of higher gangliosides (in words)” value in test [3] (tamoxifen, MCF-7-AdrR) is listed as “suppress synthesis of higher gangliosides”. Besides, in test [4] (24 h incubation with [3H]palmitic acid, FIG. 12, read-out: half-maximal inhibition (IC50) of cellular [3H]glycosylceramide formation), the IC50 was 1 µM. The “maximal inhibitory effect on glycosylceramide formation (in words)” value in test [4] (FIG. 12) is on record as “highest maximal effect”. The entries for the “inhibition of glycosylceramide synthesis (in words)” value in test [4] and in test [4] (listed as Tamoxifen) were “strongly inhibited” and “drastically inhibit”, respectively. Also, in test [5] (tamoxifen), the “inhibition of glycosylation of C6-ceramide (in words)” value is “drastically inhibited”. The “binding to P-glycoprotein (in words)” value in test [6] is reported as “direct binding to P-glycoprotein”.
